One assay addresses T1, human TTK (Homo sapiens, UniProt P33981).
T1 construct: amino terminal GST fusion of full length human TTK; purchased Invitrogen
T1 sequence (P33981 1-857): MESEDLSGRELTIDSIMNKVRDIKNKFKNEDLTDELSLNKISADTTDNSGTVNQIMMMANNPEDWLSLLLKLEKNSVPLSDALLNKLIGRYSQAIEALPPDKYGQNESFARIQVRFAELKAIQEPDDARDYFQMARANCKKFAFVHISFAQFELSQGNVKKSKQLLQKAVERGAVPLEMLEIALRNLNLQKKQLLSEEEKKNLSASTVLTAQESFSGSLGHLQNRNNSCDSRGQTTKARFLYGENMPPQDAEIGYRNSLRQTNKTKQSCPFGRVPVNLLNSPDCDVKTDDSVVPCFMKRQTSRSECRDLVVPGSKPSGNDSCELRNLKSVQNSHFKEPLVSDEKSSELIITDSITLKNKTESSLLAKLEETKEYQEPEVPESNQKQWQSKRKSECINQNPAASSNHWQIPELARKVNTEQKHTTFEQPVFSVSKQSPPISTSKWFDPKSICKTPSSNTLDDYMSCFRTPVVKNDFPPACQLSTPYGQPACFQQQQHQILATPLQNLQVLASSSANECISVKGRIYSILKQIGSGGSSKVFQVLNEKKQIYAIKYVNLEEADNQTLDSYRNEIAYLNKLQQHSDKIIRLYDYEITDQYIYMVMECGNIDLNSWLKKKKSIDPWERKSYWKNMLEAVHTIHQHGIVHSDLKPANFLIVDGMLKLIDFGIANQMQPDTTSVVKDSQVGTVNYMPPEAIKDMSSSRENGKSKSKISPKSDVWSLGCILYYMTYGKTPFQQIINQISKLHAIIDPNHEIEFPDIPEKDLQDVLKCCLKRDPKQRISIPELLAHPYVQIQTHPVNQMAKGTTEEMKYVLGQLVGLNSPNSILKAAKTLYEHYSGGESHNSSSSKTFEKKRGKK
The assay can be described thus: TTK inhibition assay (indirect ELISA). In kind it is biochemical. The settings on record: read-out: TTK IC50 Range.

A further assay relates to Breast cancer cells. Description: Cancer cell line growth inhibition (SRB assay). In kind it is cell-based. Conditions: Homo sapiens; MDA-MB-468; read-out: Cancer Cell Line GI50 Range MDA-MB-468.
The subject of assay [1] is colon cancer cells (HCT116). Description: Cancer cell line growth inhibition (SRB assay). Type of assay: cell-based. The settings on record: Homo sapiens, HCT-116; read-out: Cancer Cell Line GI50 Range HCT116.
Assay [2] relates to ovarian cancer cells (PA-1). Description: Cancer cell line growth inhibition (SRB assay). In kind it is cell-based. Conditions: Homo sapiens, PA-1; read-out: Cancer Cell Line GI50 Range PA-1.

Each structure is given as a SMILES string.

As to `CN1[C@@H]2CC[C@H]1C[C@@H](Oc1ccc(-c3n[nH]c4ccc(C(=O)NCC5(OC6CCCC6)CCCCC5)cc34)cc1)C2` [Example A438], the half-maximal inhibitory concentration (IC50) on human TTK is under 100 nM. Also, the concentration for 50% growth inhibition (GI50) in the assay with Breast cancer cells was over 500 nM; in assay [1], 100 to 500 nM; in assay [2] it was 100 to 500 nM.
For the compound `O=C(NCC1(N2CCOCC2)CCOCC1)c1ccc2[nH]nc(-c3ccc(N4[C@@H]5CC[C@H]4C[C@@H](O)C5)cc3)c2c1` [Example A493, 3-(4-((1R,3R,5S)-3-hydroxy-8-azabicyclo[3.2.1]octan-8-yl)phenyl)-N-((4-morpholinotetrahydro-2H-pyran-4-yl)methyl)-1H-indazoIe-5-carboxamide], the IC50 on human TTK was under 100 nM. Besides, the GI50 in the assay on Breast cancer cells was over 500 nM; in assay [1], 100 to 500 nM; in assay [2] it was 100 to 500 nM.
For `CC(C)C[C@H](NC(=O)c1ccc2[nH]nc(-c3ccc(N4[C@@H]5CCC[C@H]4COC5)cc3)c2c1)c1ccccc1Cl` [Example A417, 3-(4-((1R,5S)-3-oxa-9-azabicyclo[3.3.1]nonan-9-yl)phenyl)-N-((S)-(2-chlorophenyl)-3-methylbutyl)-1 H-indazole-5-carboxamide], the IC50 at human TTK is under 100 nM. Besides, the GI50 (in the assay on Breast cancer cells; in assay [1]; in assay [2]) was 100 to 500 nM in each case.
For `CC(C)C[C@H](NC(=O)c1ccc2[nH]nc(-c3ccc(N4C5CCCC4CC(O)C5)cc3)c2c1)c1ccccn1` (stereo partly drawn) [Example A304, 3-(4-((1R,3S,5S)-3-hydroxy-9-azabicyclo[3.3.1]nonan-9-yl)phenyl)-N-((S)-3-methyl-1-(pyridin-2-yl)butyl)-1H-indazole-5-carboxamide], the concentration for half-maximal inhibition (IC50) on human TTK is under 100 nM. Besides, the 50% growth inhibitory concentration (GI50) (with Breast cancer cells; in assay [1]; in assay [2]) was 100 to 500 nM in each case.
On to `O=CN1[C@@H]2CC[C@H]1C[C@@H](Oc1ccc(-c3n[nH]c4ccc(C(=O)NC(c5ccccc5)C5CCC5)cc34)cc1)C2` (stereo partly drawn) [Example A346, N-(cyclobutyl(phenyl)methyl)-3-(4-(((1R,3R,5S)-8-formyl-8-azabicyclo[3.2.1]octan-3-yl)oxy)phenyl)-1H-indazole-5-carboxamide], for which the half-maximal inhibitory concentration (IC50) on human TTK is under 100 nM. Moreover, the GI50 (in the assay with Breast cancer cells; in assay [1]; in assay [2]) was 100 to 500 nM throughout.
As for `CS(=O)(=O)c1cc(-c2n[nH]c3ccc(C(=O)NC(c4ccccn4)C4CC4)cc23)ccc1OC1CCNCC1` (stereo not shown) [Example A243, N-(cyclopropyl(pyridin-2-yl)methyl)-3-(3-(methylsulfonyl)-4-(piperidin-4-yloxy)phenyl)-1H-indazole-5-carboxamide], the half-maximal inhibitory concentration (IC50) on human TTK is under 100 nM. Further, the GI50 (with Breast cancer cells; in assay [1]; in assay [2]) was over 500 nM throughout.
As to `CCC(CC)(CNC(=O)c1ccc2[nH]nc(-c3ccc(N4CCN(C)CC4)cc3)c2c1)c1ccccc1` [Example A441, N-(2-ethyl-2-phenylbutyl)-3-(4-(4-methylpiperazin-1-yl)phenyl)-1H-indazole-5-carboxamide], the IC50 at human TTK is under 100 nM. In addition, the GI50 (in the assay on Breast cancer cells; in assay [1]; in assay [2]) was 100 to 500 nM throughout.
On to `O=C(N[C@H](c1ccccn1)C1CCCC1)c1ccc2[nH]nc(-c3ccc(OC4CC5CCC(C4)N5C4COC4)cc3)c2c1` (stereo partly drawn) [Example A347, N-((S)-cyclopentyl(pyridin-2-yl)methyl)-3-(4-(((1R,3R,5S)-8-(oxetan-3-yl)-8-azabicyclo[3.2.1]octan-3-yl)oxy)phenyl)-1H-indazole-5-carboxamide], for which the 50% inhibitory concentration (IC50) at human TTK is under 100 nM. The GI50 in the assay with Breast cancer cells was 100 to 500 nM; in assay [1], under 100 nM; in assay [2], 100 to 500 nM.
Take `O=C(N[C@H](c1ccccn1)C1CC1)c1ccc2[nH]nc(-c3ccc4c(c3)C(=O)CC3(CCOCC3)O4)c2c1` [Example A262, (S)-N-(cyclopropyl(pyridin-2-yl)methyl)-3-(4-oxo-2′,3′,5′,6′-tetrahydrospiro[chroman-2,4′-pyran]-6-yl)-1H-indazole-5-carboxamide]: the concentration for half-maximal inhibition (IC50) on human TTK is under 100 nM. For the same compound, the GI50 (in the assay with Breast cancer cells; in assay [1]; in assay [2]) was 100 to 500 nM in each case.
With `CCC(CC)(CNC(=O)c1ccc2[nH]nc(-c3ccc(N4CCN(C)CC4)cc3)c2c1)N1CCOCC1` [Example A465, N-(2-ethyl-2-morpholinobutyl)-3-(4-(4-methylpiperazin-1-yl)phenyl)-1H-indazole-5-carboxamide], the 50% inhibitory concentration (IC50) at human TTK is under 100 nM. The figures for the concentration for 50% growth inhibition (GI50) (in the assay with Breast cancer cells; in assay [1]; in assay [2]) were 100 to 500 nM, 100 to 500 nM and under 100 nM, respectively.
For `O=C(N[C@H](c1ccccn1)C1CC1)c1ccc2[nH]nc(-c3ccc4c(c3)C(=O)CCO4)c2c1` [Example A241], the IC50 at human TTK is under 100 nM. The GI50 (in the assay on Breast cancer cells; in assay [1]; in assay [2]) was over 500 nM in each case.
Take `O=C(N[C@H](c1ccccn1)C1CC1)c1ccc2[nH]nc(-c3ccc(OC4CCN(C[C@@H](O)C(F)(F)F)CC4)cc3)c2c1` [Example A225, N-((S)-cyclopropyl(pyridin-2-yl)methyl)-3-(4-((1-((R)-3,3,3-trifluoro-2-hydroxypropyl)piperidin-4-yl)oxy)phenyl)-1H-indazole-5-carboxamide]: the IC50 at human TTK is under 100 nM. In addition, the GI50 in the assay with Breast cancer cells was 100 to 500 nM; in assay [1] it was under 100 nM; in assay [2], under 100 nM.
On to `O=C(NCC1(CN2CCOCC2)CCCCC1)c1ccc2[nH]nc(-c3ccc(N4[C@@H]5CC[C@H]4COC5)cc3)c2c1` [Example A510, 3-(4-((1R,5S)-3-oxa-8-azabicyclo[3.2.1]octan-8-yl)phenyl)-N-((1-(morpholinomethyl)cyclohexyl)methyl)-1H-indazole-5-carboxamide], for which the IC50 at human TTK is under 100 nM. The concentration for 50% growth inhibition (GI50) (with Breast cancer cells; in assay [1]; in assay [2]) was 100 to 500 nM in each case.
With `CN1CCC(CO)(Cc2ccc(-c3n[nH]c4ccc(C(=O)NCC5(N6CCOCC6)CCCCC5)cc34)cc2)CC1` [Example A486, 3-(4-((4-(hydroxylmethyl)-1-methylpiperidin-4-yl)methyl)phenyl)-N-((1-morpholinocyclohexyl)methyl)-1H-indazole-5-carboxamide], the 50% inhibitory concentration (IC50) on human TTK is under 100 nM. Also, the GI50 in the assay on Breast cancer cells is over 500 nM; in assay [1], 100 to 500 nM; in assay [2] it was 100 to 500 nM.
On to `CCC(CC)C(NC(=O)c1ccc2[nH]nc(-c3ccc(OC4CCN(C5COC5)CC4)cc3)c2c1)c1ccccn1` (stereo not shown) [Example A292, N-(2-ethyl-1-(pyridin-2-yl)butyl)-3-(4-((1-(oxetan-3-yl)piperidin-4-yl)oxy)phenyl)-1H-indazole-5-carboxamide], for which the IC50 on human TTK was under 100 nM. The GI50 (in the assay on Breast cancer cells; in assay [1]; in assay [2]) was under 100 nM in each case.
Turning to `O=C(NCC1(c2ccccc2)CCOCC1)c1ccc2[nH]nc(-c3ccc(N4CC(N5CCOCC5)C4)cc3)c2c1` [Example A499, 3-(4-(3-morpholinoazetidin-1-yl)phenyl)-N-((4-phenyltetrahydro-2H-pyran-4-yl)methyl)-1H-indazole-5-carboxamide], the half-maximal inhibitory concentration (IC50) on human TTK is under 100 nM. Further, the GI50 (in the assay on Breast cancer cells; in assay [1]; in assay [2]) was 100 to 500 nM throughout.
In the case of `O=C(N[C@H](c1ccsc1)C1CC1)c1ccc2[nH]nc(-c3ccc(N4C5CCC4CC(O)C5)cc3)c2c1` (stereo partly drawn) [Example A365, N-((S)-cyclopropyl(thiophen-3-yl)methyl)-3-(4-((1R,3S,5S)-3-hydroxy-8-azabicyclo[3.2.1]octan-8-yl)phenyl)-1H-indazole-5-carboxamide], at human TTK, the IC50 was under 100 nM. The 50% growth inhibitory concentration (GI50) (in the assay on Breast cancer cells; in assay [1]; in assay [2]) was under 100 nM each time.
Regarding `CC(C)[C@@H](NC(=O)c1ccc2[nH]nc(-c3ccc(N4CC(N5CCOCC5)C4)cc3)c2c1)c1ccccc1Cl` [Example A317, (R)-N-(1-(2-chlorophenyl)-2-methylpropyl)-3-(4-(3-morpholinoazetidin-1-yl)phenyl)-1H-indazole-5-carboxamide], the half-inhibitory concentration (IC50) on human TTK is under 100 nM. The GI50 was 100 to 500 nM in the assay with Breast cancer cells, 100 to 500 nM in assay [1] and under 100 nM in assay [2].
With `O=CN1CCC2(CC1)CC(=O)c1cc(-c3n[nH]c4ccc(C(=O)N[C@H](c5ccccn5)C5CC5)cc34)ccc1O2` [Example A263, (S)-N-(cyclopropyl(pyridin-2-yl)methyl)-3-(1′-formyl-4-oxospiro[chroman-2,4′-piperidin]-6-yl)-1H-indazole-5-carboxamide], the IC50 on human TTK was under 100 nM. Moreover, the GI50 is 100 to 500 nM with Breast cancer cells, 100 to 500 nM in assay [1] and under 100 nM in assay [2].

The values are drawn from patent publication US9580390B2, “Indazole compounds as kinase inhibitors and method of treating cancer with same” (University Health Network, priority 2011, dated 2017).
